Reference: patent US20110195924A1, “Methods of Inhibiting the Interaction Between S100P and the Receptor for Advanced Glycation End-Products” (priority 2008, published 2011)

Legend:
Assay type in all cases: cell-based
[1] = test system: SKOV3 ovarian cells; assay: SKOV3 ovarian cell proliferation; settings: different concentrations; 24, 48, 72 hours
Protocol: SKOV3 ovarian cells were cultured for up to three days in the presence of different concentrations of cromolyn, and cell proliferation was analyzed at 24, 48, and 72 hours. *, P<0.05.

[2] = test system: PC3 prostate cells; assay: PC3 prostate cell proliferation; settings: different concentrations; 24, 48, 72 hours
Protocol: PC3 prostate cells were cultured for up to three days in the presence of different concentrations of cromolyn, and cell proliferation was analyzed at 24, 48, and 72 hours. *, P<0.05.

[3] = test system: NFκB promoter activity; assay: NFκB luciferase reporter assay in Panc-1 cells
Protocol: FIGS. 3A, 3B, and 3C show the effect of cromolyn on S100P stimulated NFκB promoter activity in pancreatic cancer cells in vitro and in vivo. Panc-1 and BxPC-3 pancreatic cancer cell lines stably expressing an NFκB luciferase reporter were examined for the effects of S100P and cromolyn. […] Means and 95% confidence intervals are shown for three independent experiments performed in triplicate. *, P=0.022, †, P<0.001, and P<0.001 versus control; #, P=0.005 versus 100 nM S100P alone. […] Means and 95% confidence intervals are shown for three independent experiments performed in triplicate. *, P=0.003, †, P<0.001 versus control. […] After 1 week, tumor growth was assessed and NFκB activity was analyzed using an IVIS system (Xenogen Corp., Alameda, Calif.) after injecting mice with D-luciferin (150 mg per kg body weight) (0 time point). The mice were treated with cromolyn (5 mg per kg body weight by intraperitoneal injection), and NFκB luciferase activity was analyzed again at 24 and 48 hours. *, P=0.005 versus control. Means and 95% confidence intervals are shown for two independent experiments (n=4 mice per group). Two-tailed two-sample (unpaired for in vitro and paired for in vivo studies) Student's t-tests were used to determine P values.
To study pancreatic cancer cell NFκB activity, a lentivirus NFκB luciferase reporter gene construct was developed. The NFκB luciferase reporter gene was excised and isolated from the pNF-κB-Luc Vector (Clonetec, Mountain View, Calif.) and cloned into the lentiviral vector FG9 (Gift from Dr. Xiao-Feng Qin, Dept. of Immunology, M.D. Anderson Cancer Center replacing the CMV/LTR and UBiC promoters, to form Lenti-NFκB-Luc. Lentiviral NFκB vector were co-transfected with packaging constructs pRSVREV, pMDLg/pRRE, and the VSV-G expression plasmid pHCMVG, and lentivirus was produced in 293T cells by the calcium transfection method, as previously described in Qin, et al., Inhibiting HIV-1 infection in human T cells by lentiviral-mediated delivery of small interfering RNA against CCR5; Proc. Natl. Acad. Sci. U.S.A. 2003 Jan. 7; 100(1):183-8. […] Functional validation of NFκB reporter activity was conducted in vitro using TNF-α (20 ng/mL, Sigma, St. Louis, Mo.) as a positive control.
BxPC-3 and Panc-1 cells stably expressing a Lenti-NFkB-luc reporter construct were treated with S100P, cromolyn, or the combination for 5 hours. D-luciferin (150 μg/mL) was added to the cells, and luciferase activity was measured using an IVIS bioluminescence system (Xenogen Co. Alameda, Calif.). Each experiment was conducted three times in triplicate.

[4] = test system: BxPC-3 cells; assay: BxPC-3 cell proliferation (MTS); settings: 48 hours; for basal cell proliferation, mean: 0 μM mean 1.2
Protocol: BxPC-3 cells were plated at 1.0×10^3 cells/well and treated with 0 μM, 1 μM, 10 μM, and 100 μM of cromolyn, and cell proliferation was analyzed after 48 hours. Means and 95% confidence intervals of three independent experiments performed in triplicate are shown. *, P=0.002; t, P<0.001 versus control. Growth of Panc-1 and BxPC3 pancreatic adenocarcinoma cells was analyzed using MTS reagent (Promega, Madison, Wis.) according to the manufacturer's directions. Purified S100P (100 nM final concentration) with or without cromolyn (100 μM final concentration) was added to Panc-1 cells. Only cromolyn (0-100 μM) was added to BxPC-3 cells, which express endogenous S100P. For both cell models, 1.0×10^3 cells/well were plated in 96-well culture dishes. Cells were treated with S100P, PDGF, or cromolyn, or a combination, followed immediately by treatment with either S100P or PDGF. MTS (20 μL per well) was added to cells at various times, and the mixture was incubated for 1 hour at 37° C. Samples were then read at 490 nm (as O.D. units) on a uQuant-Microplate Spectrophotometer (Bio-Tek Services Inc., Richmond, Va.). The assay was performed three times in triplicate.

[5] = S100P 100 nM + cromolyn 100 μM, 5 hours

SMILES: O=C(O)c1cc(=O)c2c(OCC(O)COc3cccc4oc(C(=O)O)cc(=O)c34)cccc2o1 [cromolyn, disodium 1,3-bis[(2′-carboxylatochromon-5′-yl)oxy]-2-hydroxypropane]
- growth of SKOV3 cells [1]: reduced the growth
- growth of PC3 cells [2]: reduced growth
- NFκB promoter activity, difference versus 100 nM S100P alone [3, 5]: 7100 photons/sec
- NFκB promoter activity, mean [3, 5]: 7360 photons/sec
- basal NFκB activity ([3]; cromolyn alone): no effect
- basal cell proliferation, difference versus 0 μM ([4]; cromolyn 10 μM): 0.5 MTS units
- basal cell proliferation, mean ([4]; cromolyn 10 μM): 0.7 MTS units
- basal cell proliferation, difference versus 0 μM ([4]; cromolyn 100 μM): 0.6 MTS units
- basal cell proliferation, mean ([4]; cromolyn 100 μM): 0.6 MTS units
